Laboratory results: PubChem BioAssay (NCI)
“And” between values parts separate entries of the source, which are not always exact repeats. Equal entries are not always repeated.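 Step 1: Grow cells in 96-well plates. Step 2: Expose to compound for 48 hours at 5 concentrations. Step 3: Interpolate endpoints linearly; if unreached, use highest concentration. The concentration for 50% growth inhibition is given as GI50. TGI: concentration producing complete growth inhibition.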 *1 amine or outer side, *2 acyl side, *3 side chain or, on linkers, in order; H or OH if unused. Where a SMILES comes first, the peptide text is derived from it. Bridges are numbered along the chain shown (N, C = ends). [ ]: non-standard residue; d: D form. ξ: configuration not given here. X4 = CCC(C)C(N[*:1])C(O)CC(=O)O[C@H](C(=O)C(C)C(=O)[*:2])C(C)C; NMeY = CN[C@@H](Cc1ccc(O)cc1)C(=O)O; X9 = O=C([C@@H]1CC(O)CN1[*:1])[*:2]; ξNMeL = CNC(CC(C)C)C(=O)O; ξT = CC(O)C(N)C(=O)O

Legend:
Test in all cases: DTP human tumour cell line panel, 48 h
TK-10 renal = tested on: TK-10 renal
ACHN renal = tested on: ACHN renal
EKVX NSCLC = tested on: EKVX NSCLC
UACC-257 melanoma = tested on: UACC-257 melanoma
SK-MEL-2 melanoma = tested on: SK-MEL-2 melanoma
HS 578T breast = tested on: HS 578T breast
PC-3 prostate = tested on: PC-3 prostate
HL-60(TB) leukemia = tested on: HL-60(TB) leukemia
LOX IMVI melanoma = tested on: LOX IMVI melanoma
SF-539 CNS = tested on: SF-539 CNS

## O=[N+]([O-])c1cccc(-c2nc3sccn3c2-c2ccnc(NCCCNS(=O)(=O)c3ccc(F)cc3)n2)c1
TK-10 renal
  GI50: 4.34 µM
  TGI: > 100 µM
ACHN renal
  GI50: 2.19 µM
  TGI: 10.8 µM
EKVX NSCLC
  GI50: 2.9 µM
  TGI: > 100 µM
UACC-257 melanoma
  GI50: 2.54 µM
  TGI: 7.96 µM
SK-MEL-2 melanoma
  GI50: 2.06 µM
  TGI: 5.43 µM
HS 578T breast
  GI50: 3.25 µM
  TGI: > 100 µM
PC-3 prostate
  GI50: 1.14 µM
  TGI: 4.82 µM
HL-60(TB) leukemia
  GI50: 2.55 µM
  TGI: 6.69 µM
LOX IMVI melanoma
  GI50: 2.57 µM
  TGI: 10.4 µM
SF-539 CNS
  GI50: 3.61 µM
  TGI: > 100 µM

## N#Cc1nc(-c2cccc(Br)c2)cc(-c2ccc(Nc3nc(N4CCCCC4)nc(N4CCCCC4)n3)cc2)c1N
TK-10 renal
  GI50: 1.8 µM
  TGI: 3.47 µM
ACHN renal
  GI50: 1.72 µM
  TGI: 3.3 µM
EKVX NSCLC
  GI50: 2.12 µM
  TGI: 5.02 µM
UACC-257 melanoma
  GI50: 2.98 µM
  TGI: 29.8 µM
SK-MEL-2 melanoma
  GI50: 2.09 µM
  TGI: 4.61 µM
HS 578T breast
  GI50: 2.1 µM
  TGI: 5.29 µM
PC-3 prostate
  GI50: 1.94 µM
  TGI: 7.11 µM
HL-60(TB) leukemia
  GI50: 2.27 µM
  TGI: 6.47 µM
LOX IMVI melanoma
  GI50: 1.62 µM
  TGI: 3.01 µM
SF-539 CNS
  GI50: 1.74 µM
  TGI: 3.14 µM

## CC1(C)CCSC(/C=C/c2ccccc2)=N1
TK-10 renal
  TGI: 32.6 µM
ACHN renal
  TGI: 38.8 µM
EKVX NSCLC
  TGI: 63.7 µM
UACC-257 melanoma
  TGI: 27 µM
SK-MEL-2 melanoma
  TGI: 28.8 µM
HS 578T breast
  TGI: > 100 µM
PC-3 prostate
  TGI: 30.5 µM
HL-60(TB) leukemia
  TGI: > 100 µM
LOX IMVI melanoma
  TGI: 27.8 µM
SF-539 CNS
  TGI: 43.5 µM

## O=C(Oc1ccccc1)c1cc(O)c(O)c(O)c1
TK-10 renal
  GI50: 29.1 µM
  TGI: > 100 µM
ACHN renal
  GI50: 9.72 µM
  TGI: > 100 µM
EKVX NSCLC
  GI50: 8.95 µM
  TGI: > 100 µM
UACC-257 melanoma
  GI50: 35.8 µM
  TGI: > 100 µM
SK-MEL-2 melanoma
  GI50: 35.9 µM
  TGI: > 100 µM
HS 578T breast
  GI50: 4.67 µM
  TGI: > 100 µM
PC-3 prostate
  GI50: 13.7 µM
  TGI: > 100 µM
HL-60(TB) leukemia
  GI50: 1.43 µM
  TGI: 7.12 µM
LOX IMVI melanoma
  GI50: 8.97 µM
  TGI: > 100 µM
SF-539 CNS
  GI50: 5.65 µM
  TGI: 36.3 µM

## COc1cc2c(/C=C3/C(=O)Nc4ccccc43)c(Cl)n(Cc3ccccc3)c2cc1C
TK-10 renal
  GI50: > 100 µM
  TGI: > 100 µM
ACHN renal
  GI50: > 100 µM
  TGI: > 100 µM
EKVX NSCLC
  GI50: > 100 µM
  TGI: > 100 µM
UACC-257 melanoma
  GI50: > 100 µM
  TGI: > 100 µM
SK-MEL-2 melanoma
  GI50: > 100 µM
  TGI: > 100 µM
HS 578T breast
  GI50: > 100 µM
  TGI: > 100 µM
PC-3 prostate
  GI50: 87.9 µM
  TGI: > 100 µM
HL-60(TB) leukemia
  GI50: 6.61 µM
  TGI: > 100 µM
LOX IMVI melanoma
  GI50: > 100 µM
  TGI: > 100 µM
SF-539 CNS
  GI50: > 100 µM
  TGI: > 100 µM

## O=C1C(NCCO)=C(N2CC2)C(=O)C(NCCO)=C1N1CC1
TK-10 renal
  TGI: > 100 µM
ACHN renal
  TGI: > 100 µM
EKVX NSCLC
  TGI: > 100 µM
UACC-257 melanoma
  TGI: > 100 µM
SK-MEL-2 melanoma
  TGI: > 73.9 µM
HS 578T breast
  TGI: > 100 µM
PC-3 prostate
  TGI: > 100 µM
HL-60(TB) leukemia
  TGI: 57.6 µM
LOX IMVI melanoma
  TGI: 41.3 µM
SF-539 CNS
  TGI: 98 µM

## OCCNc1nc(NCCO)nc(Nc2ccc(C3=NN(c4cc(Cl)cc(Cl)c4)C(c4ccc(Cl)cc4)C3)cc2)n1 (configuration not stated)
TK-10 renal
  GI50: 1.89 µM
  TGI: 3.72 µM
ACHN renal
  GI50: 1.55 µM
  TGI: 3.17 µM
EKVX NSCLC
  GI50: 2.04 µM
  TGI: 4.72 µM
UACC-257 melanoma
  GI50: 1.95 µM
  TGI: 3.78 µM
SK-MEL-2 melanoma
  GI50: 2.13 µM
  TGI: 4.57 µM
HS 578T breast
  GI50: 2.22 µM
  TGI: 6.98 µM
PC-3 prostate
  GI50: 1.62 µM
  TGI: 4.32 µM
HL-60(TB) leukemia
  GI50: 1.86 µM
  TGI: 3.85 µM
LOX IMVI melanoma
  GI50: 1.65 µM
  TGI: 3.01 µM
SF-539 CNS
  GI50: 1.35 µM
  TGI: 2.63 µM

## CCC(C)C1NC(=O)C(NC(=O)C(CC(C)C)N(C)C(=O)[C@@H]2CC(O)CN2)C(C)OC(=O)[C@H](Cc2ccc(OC)cc2)N(C)C(=O)[C@@H]2CCCN2C(=O)[C@H](CC(C)C)NC(=O)C(C)C(=O)[C@H](C(C)C)OC(=O)CC1O (some centres not stated) (H-[X9][ξNMeL][ξT][X4]LP[NMeY](Me); ester 3-C)
TK-10 renal
  GI50: 0.0873 µM
  TGI: 1.25 µM and 7.31 µM
ACHN renal
  GI50: 0.0561 µM
  TGI: 1.01 µM and 1.9 µM
EKVX NSCLC
  TGI: 0.266 µM
UACC-257 melanoma
  TGI: 0.185 µM and 0.608 µM
SK-MEL-2 melanoma
  TGI: 0.0496 µM and 0.0758 µM
HS 578T breast
  TGI: 0.0555 µM and 0.0238 µM
PC-3 prostate
  TGI: 0.13 µM and 0.131 µM
HL-60(TB) leukemia
  GI50: 0.035 µM
LOX IMVI melanoma
  TGI: 0.0294 µM and 0.101 µM
SF-539 CNS
  TGI: 0.0152 µM and 0.0395 µM

## COc1nccc(-c2c(-c3ccc(F)cc3)ncn2C2CCC(O)CC2)n1 (configuration not stated)
TK-10 renal
  GI50: 39.4 µM
  TGI: > 100 µM
ACHN renal
  GI50: 14.8 µM
  TGI: > 100 µM
EKVX NSCLC
  GI50: 78.2 µM
  TGI: > 100 µM
UACC-257 melanoma
  GI50: > 100 µM
  TGI: > 100 µM
SK-MEL-2 melanoma
  GI50: > 100 µM
  TGI: > 100 µM
HS 578T breast
  GI50: > 100 µM
  TGI: > 100 µM
PC-3 prostate
  GI50: > 100 µM
  TGI: > 100 µM
HL-60(TB) leukemia
  GI50: 56.7 µM
  TGI: > 100 µM
LOX IMVI melanoma
  GI50: > 92.9 µM
  TGI: > 100 µM
SF-539 CNS
  GI50: > 100 µM
  TGI: > 100 µM

## CCCCCCN1C(=O)/C(=c2\sc3n(c2=O)C2C(NN=3)N(CC)C(=O)N2CC)c2ccccc21 (configuration not stated)
TK-10 renal
  GI50: 1.72 µM
  TGI: > 50 µM
ACHN renal
  GI50: 1.51 µM
  TGI: > 50 µM
EKVX NSCLC
  GI50: 2.84 µM
  TGI: > 50 µM
UACC-257 melanoma
  GI50: 3.09 µM
  TGI: > 50 µM
SK-MEL-2 melanoma
  GI50: 3.06 µM
  TGI: > 50 µM
HS 578T breast
  GI50: 1.12 µM
  TGI: 3.28 µM
PC-3 prostate
  GI50: 2.48 µM
  TGI: > 50 µM
HL-60(TB) leukemia
  GI50: 1.96 µM
  TGI: 43.9 µM
LOX IMVI melanoma
  GI50: 1.53 µM
  TGI: > 50 µM
SF-539 CNS
  GI50: 0.831 µM
  TGI: 1.59 µM

## COc1ncnc2c(NC3OC(CO)C(O)C3O)ncnc12 (configuration not stated)
TK-10 renal
  TGI: 5.97 µM
ACHN renal
  TGI: > 53.7 µM
EKVX NSCLC
  TGI: > 49 µM
UACC-257 melanoma
  TGI: > 100 µM
SK-MEL-2 melanoma
  TGI: > 100 µM
HS 578T breast
  TGI: 4.86 µM
PC-3 prostate
  TGI: 12.6 µM
HL-60(TB) leukemia
  TGI: 0.418 µM
LOX IMVI melanoma
  TGI: 0.619 µM
SF-539 CNS
  TGI: 1.33 µM

## Cc1c(C(=O)/C=C/c2ccc(O)cc2)nnn1-c1ccnc2c(C(F)(F)F)cccc12
TK-10 renal
  GI50: 9.28 µM
  TGI: 73.4 µM
ACHN renal
  GI50: 31.5 µM
  TGI: > 100 µM
EKVX NSCLC
  GI50: 39 µM
  TGI: > 100 µM
UACC-257 melanoma
  GI50: 4.4 µM
  TGI: 22.9 µM
SK-MEL-2 melanoma
  GI50: > 100 µM
  TGI: > 100 µM
HS 578T breast
  GI50: 60.7 µM
  TGI: > 100 µM
PC-3 prostate
  GI50: 7.88 µM
  TGI: > 100 µM
HL-60(TB) leukemia
  GI50: 4.01 µM
  TGI: 31.4 µM
LOX IMVI melanoma
  GI50: 6.41 µM
  TGI: > 100 µM
SF-539 CNS
  GI50: 72.5 µM
  TGI: > 100 µM

## COc1cc(N2CCC(N(C)C)CC2)ccc1Nc1ncc(Cl)c(Nc2ccccc2P(C)(C)=O)n1
TK-10 renal
  GI50: 0.491 µM and 0.196 µM
  TGI: 3.02 µM and 2.62 µM
ACHN renal
  GI50: 0.972 µM
  TGI: > 9.65 µM
EKVX NSCLC
  GI50: 0.344 µM
  TGI: > 7.38 µM
UACC-257 melanoma
  GI50: 4.01 µM and 0.61 µM
  TGI: 30 µM and > 8.47 µM
SK-MEL-2 melanoma
  GI50: 1.14 µM and 0.728 µM
  TGI: 4.16 µM and 2.99 µM
HS 578T breast
  GI50: 1.83 µM and 0.496 µM
  TGI: 8.27 µM and 2.21 µM
PC-3 prostate
  GI50: 3.73 µM and 0.506 µM
  TGI: > 96.6 µM
HL-60(TB) leukemia
  GI50: 1.25 µM and 0.168 µM
  TGI: 11.6 µM and > 5.33 µM
LOX IMVI melanoma
  GI50: 0.394 µM and 0.175 µM
  TGI: 1.82 µM and 0.68 µM
SF-539 CNS
  GI50: 1.15 µM and 0.511 µM
  TGI: 2.97 µM and 2.49 µM
